Test results published in patent US20180243190A1, “ACTIVATORS OF NRF2-DEPENDENT PHOTOPROTECTION AND RELATED USES THEREOF” (THE ARIZONA BOARD OF REGENTS ON BEHALF OF THE UNIVERSITY OF …, priority 2015, published 2018).

Columns and labels:
NRF2 [1] = test: Immunoblot analysis of NRF2 and NRF2 targets in HEKs; type: cell-based, human; conditions: ≤20 μM, 24 h, exposure time ≤24 h at 20 μM
Description: Experiments were performed according to previously published procedures. Cells were harvested in sample buffer (50 mM Tris-HCl [pH 6.8], 2% sodium dodecyl sulfate (SDS), 10% glycerol, 100 mM dithiothreitol (DTT), and 0.1% bromophenol blue), boiled and sonicated. Total cell lysates were resolved by SDS-PAGE and subjected to immunoblot analyses with the indicated antibodies. For the ubiquitination assay, cells were cotransfected with expression vectors for NRF2 and HA-tagged ubiquitin (HA-Ub). Cells were left untreated or treated with either 5 μM sulforaphane (SF) or 40 μM bixin along with 10 μM MG132 for 4 h. Cells were harvested in buffer containing 2% SDS, 150 mM NaCl, 10 mM Tris-HCl (pH 8.0), and 1 mM DTT and boiled immediately. For immunoprecipitation, 1 μg of NRF2 antibody was incubated with the cell lysates at 4° C. overnight with protein A agarose beads (Invitrogen). Immunoprecipitated complexes were washed four times with RIPA buffer and eluted in sample buffer by boiling for 5 min. Samples were resolved by SDS-PAGE and immunoblotted with HA antibody. To measure the half-life of NRF2, HaCaT cells were either left untreated or treated with 5 μM bixin for 4 h, then 50 μM cycloheximide was added to block protein synthesis. […] The relative intensity of the bands was quantified using the ChemiDoc CRS gel documentation system and Quantity One software (BioRad).

NRF2 [2] = test: Immunoblot analysis (NRF2/KEAP1/targets) in HaCaT keratinocytes; type: cell-based, human
Description: Experiments were performed according to previously published procedures. Cells were harvested in sample buffer (50 mM Tris-HCl [pH 6.8], 2% sodium dodecyl sulfate (SDS), 10% glycerol, 100 mM dithiothreitol (DTT), and 0.1% bromophenol blue), boiled and sonicated. Total cell lysates were resolved by SDS-PAGE and subjected to immunoblot analyses with the indicated antibodies. For the ubiquitination assay, cells were cotransfected with expression vectors for NRF2 and HA-tagged ubiquitin (HA-Ub). Cells were left untreated or treated with either 5 μM sulforaphane (SF) or 40 μM bixin along with 10 μM MG132 for 4 h. Cells were harvested in buffer containing 2% SDS, 150 mM NaCl, 10 mM Tris-HCl (pH 8.0), and 1 mM DTT and boiled immediately. For immunoprecipitation, 1 μg of NRF2 antibody was incubated with the cell lysates at 4° C. overnight with protein A agarose beads (Invitrogen). Immunoprecipitated complexes were washed four times with RIPA buffer and eluted in sample buffer by boiling for 5 min. Samples were resolved by SDS-PAGE and immunoblotted with HA antibody. To measure the half-life of NRF2, HaCaT cells were either left untreated or treated with 5 μM bixin for 4 h, then 50 μM cycloheximide was added to block protein synthesis. Total cell lysates were collected at different time points and subjected to immunoblot analysis with NRF2 antibody. The relative intensity of the bands was quantified using the ChemiDoc CRS gel documentation system and Quantity One software (BioRad).

HaCaT keratinocytes = test: GSH-Glo glutathione assay; type: cell-based, human; conditions: bixin 0-40 μM, 24 h
Description: Total intracellular glutathione in cultured cells was analyzed using the luminescent GSH-Glo glutathione assay (Promega). Cells were harvested and then counted using a Z2 Coulter counter, and GSH was determined per 10,000 viable cells. Data represent relative levels of glutathione normalized for cell number (treated versus solvent controls).

NRF2 [3] = test: Cell-based NRF2 ubiquitination assay; design: species or system human; conditions: HaCaT, bixin 40 μM or SF 5 μM with MG132 10 μM, 4 h
Description: In order to test if bixin-based NRF2 activation occurs through inhibition of KEAP1-mediated ubiquitination, a cell-based ubiquitination assay was performed in HaCaT cells cotransfected with expression vectors for NRF2 and HA-tagged ubiquitin (HA-Ub) (FIG. 3F). To this end, cells were either exposed to bixin (40 μM) or sulforaphane (SF; 5 μM, positive control) or left untreated, combined with proteasome inhibition (MG132; 10 μM, 4 h).
Experiments were performed according to previously published procedures. Cells were harvested in sample buffer (50 mM Tris-HCl [pH 6.8], 2% sodium dodecyl sulfate (SDS), 10% glycerol, 100 mM dithiothreitol (DTT), and 0.1% bromophenol blue), boiled and sonicated. Total cell lysates were resolved by SDS-PAGE and subjected to immunoblot analyses with the indicated antibodies. For the ubiquitination assay, cells were cotransfected with expression vectors for NRF2 and HA-tagged ubiquitin (HA-Ub). Cells were left untreated or treated with either 5 μM sulforaphane (SF) or 40 μM bixin along with 10 μM MG132 for 4 h. Cells were harvested in buffer containing 2% SDS, 150 mM NaCl, 10 mM Tris-HCl (pH 8.0), and 1 mM DTT and boiled immediately. […] The relative intensity of the bands was quantified using the ChemiDoc CRS gel documentation system and Quantity One software (BioRad).

cutaneous NRF2 = test: Cutaneous NRF2 activation after systemic administration (immunoblot, IHC, RT-PCR of skin); type: in vivo, SKH-1 mice
From the text: To explore the potential systemic photoprotective activity of bixin in a murine skin sunburn model, the feasibility of upregulating cutaneous NRF2 activity by systemic administration was first examined. It has been reported earlier that efficient cutaneous accumulation of dietary carotenoids requires prolonged nutritional supplementation over weeks and that pharmacokinetic parameters of cutaneous delivery of dietary carotinoids differ between humans and mice. Therefore, in order to circumvent the more complex pharmacokinetics associated with dietary supplementation, an intraperitoneal (i.p.) route for bixin systemic administration followed by examination of cutaneous NRF2 status was chosen. After i.p. injection of bixin (200 mg/kg) performed in Nrf2^+/+ and Nrf2^−/− mice, plasma was collected at 0, 1, 2, 4, 8, 16, 24, 48 and 72 h after injection followed by HPLC-photodiode array detection (FIG. 4A-C). […] Next, efficacy of various bixin treatment regimens (differing with regard to total dose and time after injection) for maximum activation of the NRF2 pathway in murine skin was determined (FIG. 4D).
Next, the feasibility of bixin-induced cutaneous protection was studied in a solar UV photodamage model. Nrf2^+/+ and Nrf2^−/− mice were i.p. injected with either corn oil (carrier control) or bixin (200 mg/kg) 48 h before solar UV exposure (240 mJ/cm^2 UVB; 4.4 J/cm^2 UVA). 24 h after UV exposure back skin tissue was then collected followed by immunohistochemical (IHC) analysis. […] Moreover, UV exposure alone activated the NRF2 response in murine skin, effects not detectable in Nrf2^−/− mice (FIG. 5).
Total RNA was extracted from HaCaT cells and mouse skin tissues using TRIzol (Invitrogen). Equal amounts of mRNA were used to generate cDNA using the M-MLV Reverse Transcriptase synthesis kit according to the manufacturer's instructions (Promega). RT-PCR and primer sequences of NRF2, KEAP1, GCLM, AKR1C1 and GAPDH were described previously to evaluate mRNA expression using the LightCycler 480 system (Roche). Quantification of cDNA amount for mouse Nrf2, Keap1, Gclm, and Akr1c1 in each skin tissue sample was performed using the KAPA SYBR FAST qPCR Kit (Kapa Biosystems).
Nrf2^+/+ and Nrf2^−/− SKH-I mice were obtained by breeding Nrf2 heterozygous mice generated by back-crossing Nrf2^−/− C57BL/6 mice onto the SKH-1 hairless mouse genetic background for at least six generations (JAX® Mice, The Jackson Laboratory). All animals received water and food ad libitum and were handled according to the Guide for the Care and Use of Laboratory Animals; the protocols were approved by the University of Arizona Institutional Animal Care and Use Committee. Eight-week-old Nrf2^+/+ and Nrf2^−/− mice were randomly allocated into four groups (n=6): (i) control (corn oil); (ii) bixin (200 mg/kg, dissolved in corn oil); (iii) UV; (iv) bixin+UV. Bixin was administered through intraperitoneal (i.p.) injection 48 h before UV exposure.
24 h after UV exposure, the mice were euthanized and back skin was collected and divided into two parts: one part was frozen in liquid nitrogen for total RNA extraction and protein analysis; the other part was fixed in 10% buffered formalin and embedded in paraffin for histological and immunohistochemical analyses. Tissue sections (4 μm) were baked and deparaffinized. Hematoxylin and eosin (H&E) staining was performed for pathological examination. […]

## COC(=O)/C=C/C(C)=C\C=C\C(C)=C\C=C\C=C(C)\C=C\C=C(C)\C=C\C(=O)O [bixin]
NRF2 [1]
  protein levels of NRF2 and NRF2 targets (NQO1, AKR1C2, HO-1, TrxR, GCLM, SRXN1, FTH1): increased protein levels
NRF2 [2]
  NRF2 target proteins GCLM and AKR1C1: upregulated
  bixin-induced Nrf2 upregulation after 24 h preincubation using NAC: did not attenuate
NRF2 [2]; bixin 20 μM
  duration of NRF2 upregulation: sustained over the course of the 24 h treatment
  time to detectable induction of NRF2 protein levels: ≤ 2 h
NRF2 [2]; bixin 20 μM, 0-48 h
  KEAP1 protein levels: no changes
NRF2 [2]; bixin 20 μM, 48 h
  duration of GCLM upregulation: persisted over an extended period
NRF2 [2]; bixin 40 μM, 4 h, 1 h antioxidant pretreatment
  bixin-induced upregulation of Nrf2 protein levels under cotreatment with anti-oxidants (tiron, trolox, NAC): not attenuated
HaCaT keratinocytes
  increase of total cellular glutathione: ~50%
NRF2 [3]
  NRF2-ubiquitination versus untreated control: dramatic reduction
Cutaneous NRF2; 200 mg/kg i.p.
  skin mRNA levels of Nrf2: did not increase
  skin protein or mRNA levels of Keap1: no effects
Cutaneous NRF2; 200 mg/kg, 72 h after injection, Nrf2+/+ mice
  upregulation of cutaneous protein levels of NRF2 and its targets (GCLM and AKR1C1), comparison of regimens: most effective
Cutaneous NRF2; Nrf2+/+ mice, 200 mg/kg i.p.
  cutaneous NRF2 pathway (NRF2, GCLM, AKR1C1 protein and mRNA): dramatically induced
Cutaneous NRF2; dosage amounts less than 10 mg/kg
  activation of NRF2 pathway related activity within skin cells: insufficient
